{"source": "patent US20130197043A1", "about": "“USE OF THE FETAL REPROGRAMMING OF A PPAR AGONIST” (SNU R&DB FOUNDATION, priority 2010, published 2013)", "key": {"[1]": {"molecular_target": "T1, hPPAR δ (Homo sapiens, UniProt Q03181)", "T1 construct": "expressed in transfected cells; host or cells: CV-1 cells", "T1 sequence (Q03181 1-441)": "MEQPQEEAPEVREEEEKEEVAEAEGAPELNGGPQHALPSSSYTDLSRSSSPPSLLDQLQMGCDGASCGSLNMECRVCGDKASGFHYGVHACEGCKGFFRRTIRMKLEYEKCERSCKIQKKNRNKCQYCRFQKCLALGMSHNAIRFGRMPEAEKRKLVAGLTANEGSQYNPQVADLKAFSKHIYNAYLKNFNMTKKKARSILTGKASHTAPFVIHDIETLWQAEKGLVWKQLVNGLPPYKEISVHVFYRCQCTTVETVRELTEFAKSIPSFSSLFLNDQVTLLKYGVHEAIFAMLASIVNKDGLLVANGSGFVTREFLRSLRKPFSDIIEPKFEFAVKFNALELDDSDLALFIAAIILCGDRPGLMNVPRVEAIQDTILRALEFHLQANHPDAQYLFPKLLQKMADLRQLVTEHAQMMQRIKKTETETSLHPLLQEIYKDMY", "test": "Transfection assay in CV-1 cells, hPPAR δ", "assay_type": "cell-based", "settings": "luciferase reporter", "method": "(§1) This assay was conducted by using CV-1 cells. The cells were cultured on a 96-well plate with a DMEM medium containing 10% FBS, DBS (delipidated), and 1% penicillin/streptomycin in 37° C. of an incubator 5% of carbon dioxide. Test was conducted in four stages of cell inoculation, transfection, treatment with the developed material, and result confirmation. The CV-1 cells were inoculated on the 96-well plate at a cell density at 5,000 cells/well, and after 24 hours, transfection was performed. PPARs plasmid DNA, reporter DNA, and β-galactosidase DNA were mixed with a transfection reagent, and then used to treat the cells. The developed material was dissolved in dimethylsulfoxide (DMSO), and then was used to treat the cells by using media at various concentrations. After 24 hours of culturing in an incubator, the cells were lysed with a lysis buffer and luciferase activity and β-galactosidase activity were measured using a luminometer and a microplate reader. The measured luciferase value was calibrated with the β-galactosidase value, and this value was depicted on a graph and EC50 was determined."}, "[2]": {"molecular_target": "T2, hPPARa (Homo sapiens, UniProt Q07869)", "T2 construct": "expressed in transfected cells; host or cells: CV-1 cells", "T2 sequence (Q07869 1-468)": "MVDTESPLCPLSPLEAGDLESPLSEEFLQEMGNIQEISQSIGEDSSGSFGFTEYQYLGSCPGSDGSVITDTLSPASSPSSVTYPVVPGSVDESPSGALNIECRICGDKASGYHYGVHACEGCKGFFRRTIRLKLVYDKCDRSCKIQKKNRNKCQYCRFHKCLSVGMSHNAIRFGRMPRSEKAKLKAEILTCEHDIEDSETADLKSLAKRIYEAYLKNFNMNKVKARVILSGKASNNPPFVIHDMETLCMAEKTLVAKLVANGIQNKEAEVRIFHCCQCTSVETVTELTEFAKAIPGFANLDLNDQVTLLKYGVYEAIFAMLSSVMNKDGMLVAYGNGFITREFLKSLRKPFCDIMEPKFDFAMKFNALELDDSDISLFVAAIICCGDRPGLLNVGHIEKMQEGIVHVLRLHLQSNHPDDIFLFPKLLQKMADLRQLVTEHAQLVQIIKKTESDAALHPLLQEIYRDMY", "test": "Transfection assay in CV-1 cells, hPPARa", "assay_type": "cell-based", "settings": "luciferase reporter", "method": "as §1"}, "[3]": {"tested_on": "mice with high-fat-induced diabetes", "test": "Glucose tolerance test (GTT) in mice with high-fat-induced diabetes", "assay_type": "in vivo", "settings": "10 mg/Kg/day over 70 days; glucose 1.5 g/kg", "method": "The glucose tolerance test (GTT) was conducted in order to verify the diabetes improvement effect of the material according to the present invention. Glucose (1.5 g/kg) was abdominally administer to mice with high-fat-induced diabetes, which was orally administered with medicine over 70 days, and then the blood glucose level change was measured for 2 hours. […] In contrast, the mouse control group administered with the vehicle […] normal blood glucose level even after 120 minutes."}, "[4]": {"tested_on": "HDL in serum", "test": "High-density lipoprotein cholesterol (HDL) in serum", "assay_type": "in vivo", "settings": "mice fed 10% fat feedstuff over 6 weeks", "from_the_text": "High-density lipoprotein cholesterol (HDL) has been known to play an important role in treating lipid metabolic disorders such as arteriosclerosis and hyperlipidemia while lowering the cholesterol level of an epidermal cell and mitigating an inflammatory reaction. Serum was separated from the mice fed over a 6-week period of feedstuff containing 10% fat in order to confirm the high-density cholesterol increase effect of Compounds 5 and 9, which were the developed materials of the present invention."}, "[5]": {"tested_on": "10-week old C57BL/6 mice", "test": "Treadmill endurance test of adult mice exercised while administered", "assay_type": "in vivo", "settings": "10 mg/kg/day oral with exercise over 30 days", "method": "In addition, it was verified that the developed material was effective in enhancing muscle endurance and improving muscular function. 10-week old C57BL/6 mice were exercised while being orally administered with the developed material at a concentration of 10 mg/kg/day. The mice were exercised using a treadmill for 30 minutes once each day over 30 days. The mice were exercised under exercise conditions of 2 meter/min for 5 minutes, 5 meters/min for 5 minutes, 8 meters/min for 5 minutes, and 20 meters/min for 5 minutes, respectively. By the end of the test, muscle endurance enhancement and muscular function improvement effects were tested by using a treadmill."}, "[6]": {"tested_on": "gene expression in gastrocnemius muscle", "test": "Gene expression analysis using microarray", "assay_type": "in vivo, mice", "from_the_text": "As for an animal, the gastrocnemius muscle of 3-week old mice fetal-reprogrammed by PPAR δ agonist (CMDD1111) was resected, and then total RNA was extracted by using the Trizol reagent (Gibco). The isolated RNA was subjected to quantitative and purity verification processes, and then used for gene expression analysis using a Mouse 430 2.0 (Affimatrix) chip."}, "[7]": {"tested_on": "mice subjected to fetal reprogramming", "test": "Body weight gain on high-fat feedstuff of fetal-reprogrammed mice", "assay_type": "in vivo", "settings": "13-week old mice, 35% fat feedstuff, 84 days", "from_the_text": "Lipometabolism has deep correlation with the occurrence of obesity and diabetes. Therefore, the present inventors checked the fetal reprogramming effect of PPAR δ on the occurrence of metabolic syndrome. The control group and administration group of 13-week old mice were fed with high-fat feedstuff (fat content: 35%) over a total of 84 days while being weighed once per week. As a result, it may be seen that, the body weight gain was suppressed by 8% in the mice subjected to fetal reprogramming by PPAR δ agonist compound (CMDD1111) as compared with the control group, as shown in FIG. 18."}, "[8]": {"settings": "microarray, gastrocnemius muscle, 3-week old mice"}}, "data": [{"compound": "Cc1cc(SC(Cc2ccc(-c3ccccc3)cc2)c2sc(-c3ccc(C(F)(F)F)cc3)nc2C)ccc1OCC(=O)O", "note": "(centres unmarked) [Compound 5]", "values": [{"measurement": "EC50", "setting": "[1]", "result": 3.3, "unit": "nM"}, {"measurement": "EC50 hPPARa", "setting": "[2]", "result": "ia"}, {"measurement": "blood glucose level change between 20 and 40 minutes versus control", "setting": "[3]", "result": "rapid decrease"}, {"measurement": "complete glucose clearance after", "setting": "[3]", "result": 100, "unit": "min"}, {"measurement": "HDL increase in serum", "setting": "[4]", "result": 68, "unit": "%"}, {"measurement": "increase in the running distance versus control", "setting": "[5]", "result": 1.8, "unit": "fold"}, {"measurement": "increase in the running time versus control", "setting": "[5]", "result": 1.7, "unit": "fold"}]}, {"compound": "Cc1cc(SC(Cc2ccc(-c3ccc(F)cc3)cc2)c2sc(-c3ccc(C(F)(F)F)cc3)nc2C)ccc1OCC(=O)O", "note": "(centres unmarked) [Compound 9]", "values": [{"measurement": "EC50", "setting": "[1]", "result": 3.9, "unit": "nM"}, {"measurement": "EC50 hPPARa", "setting": "[2]", "result": "ia"}, {"measurement": "blood glucose level change between 20 and 40 minutes versus control", "setting": "[3]", "result": "rapid decrease"}, {"measurement": "complete glucose clearance after", "setting": "[3]", "result": 100, "unit": "min"}, {"measurement": "HDL increase in serum", "setting": "[4]", "result": 62, "unit": "%"}, {"measurement": "increase in the running distance versus control", "setting": "[5]", "result": 1.5, "unit": "fold"}, {"measurement": "increase in the running time versus control", "setting": "[5]", "result": 1.5, "unit": "fold"}]}, {"compound": "Cc1cc(SC(Cc2ccccc2)c2sc(-c3ccc(C(F)(F)F)cc3)nc2C)ccc1OCC(=O)O", "note": "(centres unmarked) [CMDD1111]", "values": [{"measurement": "expressions of genes commonly expressed in the heart muscle (RYR2, ATP2A2, PLN)", "setting": "[6]; fetal-reprogrammed mouse group", "result": "remarkably increased"}, {"measurement": "expression of ATPase, Ca2+ transporting (SERCA)", "setting": "[6]; [8]", "result": 1.4, "unit": "fold"}, {"measurement": "expression of CamIIb", "setting": "[6]; [8]", "result": 1.4, "unit": "fold"}, {"measurement": "expression of CamIId", "setting": "[6]; [8]", "result": 1.8, "unit": "fold"}, {"measurement": "expression of HDAC4 (decrease)", "setting": "[6]; [8]", "result": "−1.5", "unit": "fold"}, {"measurement": "expression of Mef2a", "setting": "[6]; [8]", "result": 1.4, "unit": "fold"}, {"measurement": "expression of PPARγ coactivator 1a", "setting": "[6]; [8]", "result": 1.7, "unit": "folds"}, {"measurement": "expression of Troponin I", "setting": "[6]; [8]", "result": 3.2, "unit": "fold"}, {"measurement": "expression of Troponin T2", "setting": "[6]; [8]", "result": 2.3, "unit": "fold"}, {"measurement": "expression of acyl CoA dehydrogenase (ACAD)", "setting": "[6]; [8]", "result": 1.7, "unit": "fold"}, {"measurement": "expression of acyl CoA synthetase (ACSL)", "setting": "[6]; [8]", "result": 1.5, "unit": "fold"}, {"measurement": "expression of carnitine palmitoyl transferase 1a (CPT-1a)", "setting": "[6]; [8]", "result": 1.4, "unit": "fold"}, {"measurement": "expression of cytochrome 8a (COX8A)", "setting": "[6]; [8]", "result": 1.7, "unit": "fold"}, {"measurement": "expression of myosin binding protein C3 (MYBPC3)", "setting": "[6]; [8]", "result": 2.8, "unit": "fold"}, {"measurement": "expression of myosin heavy chain 6 (Myh6)", "setting": "[6]; [8]", "result": 2.7, "unit": "fold"}, {"measurement": "expression of myosin light chain 7 (Myl7)", "setting": "[6]; [8]", "result": 2.9, "unit": "fold"}, {"measurement": "expression of pantothenate kinase 1 (PANK1)", "setting": "[6]; [8]", "result": 2.4, "unit": "fold"}, {"measurement": "expression of phospholamban (PLN)", "setting": "[6]; [8]", "result": 2.8, "unit": "fold"}, {"measurement": "expression of ryanodine receptor 2 (RYR2)", "setting": "[6]; [8]", "result": 2.8, "unit": "fold"}, {"measurement": "expression of ryanodine receptor 3 (RYR3)", "setting": "[6]; [8]", "result": 2.0, "unit": "fold"}, {"measurement": "expression of ubiquinone", "setting": "[6]; [8]", "result": 2.0, "unit": "fold"}, {"measurement": "expression of uncoupling protein 2 (UCP2)", "setting": "[6]; [8]", "result": 1.5, "unit": "fold"}, {"measurement": "expression of uncoupling protein 3 (UCP3)", "setting": "[6]; [8]", "result": 2.3, "unit": "fold"}, {"measurement": "body weight gain suppression versus control", "setting": "[7]", "result": 8, "unit": "%"}]}]}
